{"source": "paper PMC4819940", "about": "(Cancer Chemotherapy and Pharmacology, 2016)", "key": {"[1]": {"test_system": "advanced solid tumors in Japanese patients", "assay": "Objective tumor response (RECIST version 1.1)", "format": "in vivo, human", "conditions": "for Best objective response: Non-response, Not evaluable / Best objective response: Non-response, RECIST progression / Best objective response: Non-response, Stable disease ≥6 weeks / Best objective response: Complete response / Best objective response: Partial response: patients, count (%); for Best objective response: Complete response / Best objective response: Partial response: response confirmed after 4 weeks; for time to partial response after starting AZD5363: Akt1 (E17K) positive; for duration of partial response at data cutoff: data cutoff July 7, 2014", "description": "Objective tumor response assessments were based on Response Evaluation Criteria in Solid Tumors (RECIST) version 1.1.\nTumor samples were screened for mutations using a clinical sequencing platform consisting of an in-house cancer gene panel (National Cancer Center OncoPanel version 2) based on an Agilent Sure Select system and an Illumina MiSeq sequencer. The target regions to be captured were the exons of 90 targetable or actionable genes and the introns of 10 protein kinase genes. Samples with <10 % tumor cell content were excluded from the analysis."}, "[2]": {"test_system": "Western patients with advanced solid malignancies", "design": "method as in earlier work", "conditions": "4/3 dosing schedule; cited from earlier work"}, "[3]": {"conditions": "breast cancer patient, 640 mg bid intermittent 2/5"}, "[4]": {"conditions": "ovarian cancer patient, 480 mg bid intermittent 4/3"}}}
{"smiles": "NC1(C(=O)N[C@@H](CCO)c2ccc(Cl)cc2)CCN(c2ncnc3[nH]ccc23)CC1", "note": "[AZD5363]", "values": [{"measurement": "Best objective response: Non-response, Not evaluable", "setting": "[1]; 80 mg bid continuous", "value": "0 (0.0)"}, {"measurement": "Best objective response: Non-response, RECIST progression", "setting": "[1]; 80 mg bid continuous", "value": "1 (33.3)"}, {"measurement": "Best objective response: Non-response, Stable disease ≥6 weeks", "setting": "[1]; 80 mg bid continuous", "value": "2 (66.7)"}, {"measurement": "Best objective response: Complete response", "setting": "[1]; 80 mg bid continuous", "value": "0 (0.0)"}, {"measurement": "Best objective response: Partial response", "setting": "[1]; 80 mg bid continuous", "value": "0 (0.0)"}, {"measurement": "Best objective response: Non-response, Not evaluable", "setting": "[1]; 240 mg bid continuous", "value": "1 (14.3)"}, {"measurement": "Best objective response: Non-response, RECIST progression", "setting": "[1]; 240 mg bid continuous", "value": "5 (71.4)"}, {"measurement": "Best objective response: Non-response, Stable disease ≥6 weeks", "setting": "[1]; 240 mg bid continuous", "value": "1 (14.3)"}, {"measurement": "Best objective response: Complete response", "setting": "[1]; 240 mg bid continuous", "value": "0 (0.0)"}, {"measurement": "Best objective response: Partial response", "setting": "[1]; 240 mg bid continuous", "value": "0 (0.0)"}, {"measurement": "Best objective response: Non-response, Not evaluable", "setting": "[1]; 320 mg bid continuous", "value": "2 (66.7)"}, {"measurement": "Best objective response: Non-response, RECIST progression", "setting": "[1]; 320 mg bid continuous", "value": "1 (33.3)"}, {"measurement": "Best objective response: Non-response, Stable disease ≥6 weeks", "setting": "[1]; 320 mg bid continuous", "value": "0 (0.0)"}, {"measurement": "Best objective response: Complete response", "setting": "[1]; 320 mg bid continuous", "value": "0 (0.0)"}, {"measurement": "Best objective response: Partial response", "setting": "[1]; 320 mg bid continuous", "value": "0 (0.0)"}, {"measurement": "Best objective response: Non-response, Not evaluable", "setting": "[1]; 360 mg bid intermittent 4/3", "value": "2 (25.0)"}, {"measurement": "Best objective response: Non-response, RECIST progression", "setting": "[1]; 360 mg bid intermittent 4/3", "value": "3 (37.5)"}, {"measurement": "Best objective response: Non-response, Stable disease ≥6 weeks", "setting": "[1]; 360 mg bid intermittent 4/3", "value": "3 (37.5)"}, {"measurement": "Best objective response: Complete response", "setting": "[1]; 360 mg bid intermittent 4/3", "value": "0 (0.0)"}, {"measurement": "Best objective response: Partial response", "setting": "[1]; 360 mg bid intermittent 4/3", "value": "0 (0.0)"}, {"measurement": "Best objective response: Non-response, Not evaluable", "setting": "[1]; 400 mg bid continuous", "value": "1 (25.0)"}, {"measurement": "Best objective response: Non-response, RECIST progression", "setting": "[1]; 400 mg bid continuous", "value": "3 (75.0)"}, {"measurement": "Best objective response: Non-response, Stable disease ≥6 weeks", "setting": "[1]; 400 mg bid continuous", "value": "0 (0.0)"}, {"measurement": "Best objective response: Complete response", "setting": "[1]; 400 mg bid continuous", "value": "0 (0.0)"}, {"measurement": "Best objective response: Partial response", "setting": "[1]; 400 mg bid continuous", "value": "0 (0.0)"}, {"measurement": "Best objective response: Non-response, Not evaluable", "setting": "[1]; 480 mg bid intermittent 4/3", "value": "0 (0.0)"}, {"measurement": "Best objective response: Non-response, RECIST progression", "setting": "[1]; 480 mg bid intermittent 4/3", "value": "1 (16.7)"}, {"measurement": "Best objective response: Non-response, Stable disease ≥6 weeks", "setting": "[1]; 480 mg bid intermittent 4/3", "value": "4 (66.7)"}, {"measurement": "Best objective response: Complete response", "setting": "[1]; 480 mg bid intermittent 4/3", "value": "0 (0.0)"}, {"measurement": "Best objective response: Partial response", "setting": "[1]; 480 mg bid intermittent 4/3", "value": "1 (16.7)"}, {"measurement": "Best objective response: Non-response, Not evaluable", "setting": "[1]; 640 mg bid intermittent 2/5", "value": "1 (16.7)"}, {"measurement": "Best objective response: Non-response, RECIST progression", "setting": "[1]; 640 mg bid intermittent 2/5", "value": "4 (66.7)"}, {"measurement": "Best objective response: Non-response, Stable disease ≥6 weeks", "setting": "[1]; 640 mg bid intermittent 2/5", "value": "0 (0.0)"}, {"measurement": "Best objective response: Complete response", "setting": "[1]; 640 mg bid intermittent 2/5", "value": "0 (0.0)"}, {"measurement": "Best objective response: Partial response", "setting": "[1]; 640 mg bid intermittent 2/5", "value": "1 (16.7)"}, {"measurement": "Best objective response: Non-response, Not evaluable", "setting": "[1]; Total", "value": "7 (18.9)"}, {"measurement": "Best objective response: Non-response, RECIST progression", "setting": "[1]; Total", "value": "18 (48.6)"}, {"measurement": "Best objective response: Non-response, Stable disease ≥6 weeks", "setting": "[1]; Total", "value": "10 (27.0)"}, {"measurement": "Best objective response: Complete response", "setting": "[1]; Total", "value": "0 (0.0)"}, {"measurement": "Best objective response: Partial response", "setting": "[1]; Total", "value": "2 (5.4)"}, {"measurement": "patients with confirmed partial response", "setting": "[1]; all cohorts, both Akt1 (E17K) mutation positive", "value": "two"}, {"measurement": "best response, decrease in the SLD of target lesions", "setting": "[1]; [3]", "value": 60.8, "unit": "%"}, {"measurement": "day on which progression was confirmed", "setting": "[1]; [3]", "value": 378, "unit": "days"}, {"measurement": "time to partial response after starting AZD5363", "setting": "[1]; [3]", "value": 44, "unit": "days"}, {"measurement": "patients with stable disease for 12 weeks or more", "setting": "[1]; of the 10 patients with stable disease", "value": "Seven"}, {"measurement": "time partial response was maintained", "setting": "[1]; one patient in the 480 mg bid 4/3 dosing cohort", "value": "> 2", "unit": "years"}, {"measurement": "best response, decrease in the sum of the longest diameter (SLD) of target lesions", "setting": "[1]; [4]", "value": 55.8, "unit": "%"}, {"measurement": "duration of response", "setting": "[1]; ovarian cancer patient, 480 mg bid intermittent 4/3, as of September 2015, according to the investigator", "value": 1177, "unit": "days"}, {"measurement": "time to partial response after starting AZD5363", "setting": "[1]; [4]", "value": 79, "unit": "days"}, {"measurement": "duration of partial response at data cutoff", "setting": "[1]; patient in the 480 mg bid intermittent 4/3 cohort", "value": 675, "unit": "days"}, {"measurement": "duration of partial response at data cutoff", "setting": "[1]; patient in the 640 mg bid intermittent 2/5 cohort", "value": 127, "unit": "days"}, {"measurement": "patients with stable disease", "setting": "[1]; three on continuous dosing and seven on intermittent dosing", "value": "Ten"}, {"measurement": "patients with a complete response", "setting": "[1]; tumor response analysis set", "value": "no patients"}, {"measurement": "patients with disease progression", "setting": "[1]; tumor response analysis set, 37 patients", "value": 48.6, "unit": "%"}, {"measurement": "response of PIK3CA mutation positive patients to AZD5363 treatment", "setting": "[1]; two additional patients identified as PIK3CA mutation positive", "value": "did not respond"}, {"measurement": "recommended dose for AZD5363 monotherapy", "setting": "[2]", "value": 480, "unit": "mg bid"}]}
